According to patent publication US8975401B2, “Quinazoline based EGFR inhibitors containing a zinc binding moiety” (Curis, Inc., priority 2006, dated 2015):
One block for each compound: values may come before it.

Key:
[1] = target: T1, human EGFR (His672-Ala1210) (Homo sapiens, UniProt P00533); assay: HTScan EGF Receptor Kinase Assay; type: biochemical; conditions: for activity in EFGR enzyme assay compared with erlotinib: FIG. 1
T1 construct: human EGFR (His672-Ala1210); GST (N); purchased Cell Signaling Technologies; host or cells: baculovirus expression system
T1 sequence (P00533 672-1210): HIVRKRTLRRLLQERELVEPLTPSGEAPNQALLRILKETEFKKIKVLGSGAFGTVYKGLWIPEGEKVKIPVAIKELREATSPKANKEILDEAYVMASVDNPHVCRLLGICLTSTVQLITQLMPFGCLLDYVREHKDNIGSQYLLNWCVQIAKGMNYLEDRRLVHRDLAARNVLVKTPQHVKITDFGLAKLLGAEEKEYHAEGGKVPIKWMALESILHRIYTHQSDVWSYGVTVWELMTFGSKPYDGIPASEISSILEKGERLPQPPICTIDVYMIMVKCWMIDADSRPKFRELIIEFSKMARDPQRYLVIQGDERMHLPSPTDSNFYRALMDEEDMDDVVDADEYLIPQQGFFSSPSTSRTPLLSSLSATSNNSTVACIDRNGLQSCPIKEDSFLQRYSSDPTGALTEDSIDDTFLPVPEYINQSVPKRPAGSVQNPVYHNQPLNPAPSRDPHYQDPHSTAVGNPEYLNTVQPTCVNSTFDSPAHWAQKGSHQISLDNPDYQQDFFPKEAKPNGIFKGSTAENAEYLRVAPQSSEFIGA
Experimental: The ability of compounds to inhibit receptor kinase (EGFR) activity was assayed using HTSCAN™ EGF Receptor Kinase Assay Kits (Cell Signaling Technologies, Danvers, Mass.). […] The protein was purified by one-step affinity chromatography using glutathione-agarose.
Immediately transfer enzyme from −80° C. to ice. Allowed enzyme to thaw on ice. […] Returned immediately to ice. […] Incubated reaction plate at room temperature for 30 minutes. […] Added 100 μl/well primary antibody. Incubated at room temperature for 60 minutes. […] Added 100 μl/well diluted antibody. Incubated at room temperature for 30 minutes. […] Incubated at room temperature for 5 minutes.

[2] = test system: HDAC; assay: HDAC fluorimetric enzyme assay (Biomol AK-500, HeLa nuclear extract); type: biochemical
Experimental: HDAC inhibitors were screened using an HDAC fluorimetric assay kit (AK-500, Biomol, Plymouth Meeting, Pa.).
Each assay was setup as follows: Defrosted all kit components and kept on ice until use. […] Prepared dilutions of Trichostatin A (TSA, positive control) and tested compounds in assay buffer (5× of final concentration). Diluted Fluor de Lys™ Substrate in assay buffer to 100 uM (50 fold=2× final). Diluted Fluor de Lys™ developer concentrate 20-fold (e.g. 50 μl plus 950 μl Assay Buffer) in cold assay buffer. Second, diluted the 0.2 mM Trichostatin A 100-fold in the 1× Developer (e.g. 10 μl in 1 ml; final Trichostatin A concentration in the 1× Developer=2 μM; final concentration after addition to HDAC/Substrate reaction=1 μM). Added Assay buffer, diluted trichostatin A or test inhibitor to appropriate wells of the microtiter plate. Added diluted HeLa extract or other HDAC sample to all wells except for negative controls.

[3] = target: VEGFR (Homo sapiens, UniProt P35968); assay: VEGFR assay (Table B); type: biochemical
Sequence of VEGFR (P35968 20-1356): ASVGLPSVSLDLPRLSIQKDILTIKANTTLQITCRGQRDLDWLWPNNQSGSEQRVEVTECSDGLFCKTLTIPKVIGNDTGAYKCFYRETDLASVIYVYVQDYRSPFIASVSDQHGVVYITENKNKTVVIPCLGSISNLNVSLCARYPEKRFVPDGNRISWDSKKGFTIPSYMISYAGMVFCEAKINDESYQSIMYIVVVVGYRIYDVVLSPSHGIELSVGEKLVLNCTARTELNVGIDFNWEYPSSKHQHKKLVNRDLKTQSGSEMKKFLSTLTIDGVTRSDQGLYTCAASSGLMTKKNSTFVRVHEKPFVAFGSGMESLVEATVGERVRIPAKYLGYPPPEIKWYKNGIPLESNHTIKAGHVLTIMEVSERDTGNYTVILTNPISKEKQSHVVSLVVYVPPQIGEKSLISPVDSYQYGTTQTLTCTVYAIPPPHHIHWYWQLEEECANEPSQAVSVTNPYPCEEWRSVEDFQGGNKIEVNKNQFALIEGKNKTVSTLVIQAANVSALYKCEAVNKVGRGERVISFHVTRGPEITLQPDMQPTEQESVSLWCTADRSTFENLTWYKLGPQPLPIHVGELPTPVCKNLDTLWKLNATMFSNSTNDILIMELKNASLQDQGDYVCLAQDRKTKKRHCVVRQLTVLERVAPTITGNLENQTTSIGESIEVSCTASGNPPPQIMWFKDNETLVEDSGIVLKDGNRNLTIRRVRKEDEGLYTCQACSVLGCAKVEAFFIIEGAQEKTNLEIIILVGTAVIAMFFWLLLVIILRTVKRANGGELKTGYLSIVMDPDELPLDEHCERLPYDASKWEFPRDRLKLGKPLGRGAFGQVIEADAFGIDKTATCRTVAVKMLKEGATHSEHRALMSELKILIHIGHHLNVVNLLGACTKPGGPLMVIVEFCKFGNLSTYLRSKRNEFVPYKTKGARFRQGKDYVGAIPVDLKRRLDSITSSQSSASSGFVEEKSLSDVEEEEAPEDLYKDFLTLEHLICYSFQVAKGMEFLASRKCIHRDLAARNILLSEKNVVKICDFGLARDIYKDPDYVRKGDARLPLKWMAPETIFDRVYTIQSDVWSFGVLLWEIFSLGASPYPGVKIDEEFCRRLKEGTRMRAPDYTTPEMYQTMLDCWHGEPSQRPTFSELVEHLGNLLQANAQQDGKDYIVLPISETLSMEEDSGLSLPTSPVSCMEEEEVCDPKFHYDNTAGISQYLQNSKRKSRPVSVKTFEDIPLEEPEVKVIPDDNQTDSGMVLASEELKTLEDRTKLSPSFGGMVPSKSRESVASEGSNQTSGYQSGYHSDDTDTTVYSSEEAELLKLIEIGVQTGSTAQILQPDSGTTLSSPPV

[4] = test system: HPAC pancreatic cancer cells; assay: HPAC pancreatic cancer xenograft; type: in vivo, mice; conditions: 120 mg/kg in 30% CAPTISOL (iv/ip) daily vs 50 mg/kg erlotinib (po); FIG. 12A
Experimental: (§1) A representative protocol for the in vivo experiment is as followed:
(§2) 1-10×10^6 human cancer cells were implanted subcutaneously to the athymic (nu/nu) mice. When the tumors reached about 100 mm^3 in volume, the mice were treated with the compound by tail vein infusion. Routinely 5 groups (8-12 mice per group) are needed for a typical efficacy study, including one negative control, one positive control, and three testing groups for 3 dose levels of the same compound. Usually a 7-7-5 (on-off-on) regimen was used for one typical study. The tumor size was measured with an electronic caliper and body weight measured with a scale twice weekly. The tumors were removed from euthanized mice at the end of the study. One half of each tumor was frozen in dry ice and stored at −80° C. for PK or Western blot analysis. The other half was fixed with formalin. The fixed tissues were processed, embedded in paraffin and sectioned for immunohistochemistry staining

[5] = test system: A549 NSCLC Xenograft; assay: A549 NSCLC xenograft model; type: in vivo, mice; conditions: FIG. 11A, 11B
Experimental: as §1, §2

[6] = test system: HDAC in MDA-MB-468 breast cancer cell line; assay: Inhibition of HDAC in cells (Ac-H4, Ac-H3 accumulation), FIG. 2; type: cell-based; conditions: MDA-MB-468, FIG. 2
[7] = test system: EGFR in MDA-MB-468 breast cancer cell line; assay: Inhibition of EGFR phosphorylation in cells, FIG. 2; type: cell-based; conditions: MDA-MB-468, FIG. 2
Experimental: (b) An In Vitro Assay which Determines the Ability a Test Compound to Inhibit the EGF-Stimulated EGFR Phosphorylation.
Allowed A431 cell growth in a T75 flask using standard tissue culture procedures until cells reach near confluency (˜1.5×10^7) cells; D-MEM, 10% FBS). Under sterile conditions dispensed 100 μl of the cell suspension per well in 96-well microplates (x cells plated per well). Incubated cells and monitor cell density until confluency is achieved with well-to-well consistency; approximately three days. Removed complete media from plate wells by aspiration or manual displacement. Replaced media with 50 μl of pre-warmed serum free media per well and incubated 4 to 16 hours. Made two fold serial dilutions of inhibitor using pre-warmed D-MEM so that the final concentration of inhibitor range from 10 μM to […]. Removed media from A431 cell plate. Added 100 μl of serial diluted inhibitor into cells and incubate 1 to 2 hours. Removed inhibitor from plate wells by aspiration or manual displacement. Added either serum free media for resting cells (mock) or serum free media with 100 ng/ml EGF. Used 100 μl of resting/activation media per well. Allowed incubation at 37° C. for 7.5 minutes. Removed activation or stimulation media manually or by aspiration. Immediately fixed cells with 4% formaldehyde in 1×PBS. […]

[8] = Pharmacokinetic study in rats (plasma); type: in vivo; conditions: 20 and 60 mg/kg iv, hydrochloride salt in 30% CAPTISOL, FIG. 14
Experimental: Compound was administered via an intravenous (iv) infusion.
Rat: 20 mg/kg for 5 min i.v. infusion
Plasma samples were prepared by protein precipitation. An internal standard was added into plasma samples. […] The supernatant was then injected onto LC/MS/MS.
Samples were compared to standards made in plasma. These standards were prepared by serial dilution.

[9] = test system: cancer cell lines; assay: Anti-proliferative activity in various cancer cell lines (general statements, FIG. 3); type: cell-based; conditions: lung, breast, prostate, colon, pancreas cell lines
Experimental: Cell Proliferation Assay:
Cancer cell lines were plated at 5,000 to 10,000 per well in 96-well flatted bottomed plates with various concentration of compounds. The cells were incubated with compounds for 72 hours in the presence of 0.5% of fetal bovine serum. Growth inhibition was accessed by adenosine triphosphate (ATP) content assay using Perkin Elmer ATPlite kit. ATPlite is an ATP monitoring system based on firefly luciferase. Briefly, 25 μl of mammalian cell lysis solution was added to 50 μl of phenol red-free culture medium per well to lyse the cells and stabilize the ATP. 25 μl of substrate solution was then added to the well and subsequently the luminescence was measured.

[10] = remark: listed apart in the source
From the text: B. Filtration of the Solution
C. Preparation of a Lyophilisate

[11] = mouse, in vivo

Compound: COc1cc2ncnc(Nc3ccc(F)c(Cl)c3)c2cc1OCCCCCCC(=O)NO [Compound 6, 7-(4-(3-Chloro-4-fluorophenylamino)-7-methoxyquinazolin-6-yloxy)-N-hydroxyheptanamide]
IC50 [1]: < 100 nM | activity in EFGR enzyme assay compared with erlotinib [1]: more active than erlotinib and SAHA | activity in HDAC enzyme assay compared with SAHA ([2]; FIG. 1): more active than erlotinib and SAHA | IC50 [3]: 100 to 1000 nM

Compound: C#Cc1cccc(Nc2ncnc3cc(OC)c(OCCCCCCC(=O)NO)cc23)c1 [Compound 12, 7-(4-(3-ethynylphenylamino)-7-methoxyquinazolin-6-yloxy)-N-hydroxyheptanamide]
attenuation of tumor growth [4]: greater attenuation of tumor growth than either erlotinib (po) or vehicle | effect on tumor growth / tumor size [5]: attenuated tumor growth | activity in EFGR enzyme assay compared with erlotinib [1]: more active than erlotinib and SAHA | histone acetylation (Ac-H3/Ac-H4) compared with SAHA [6]: improvement in inhibition of histone acetylation | inhibition of EGFR phosphorylation compared with Erlotinib [7]: improvement in inhibition of histone acetylation and EGFR phosphorylation | dose proportionality of plasma concentration [8]: proportional to the dose | anti-proliferative potency compared with SAHA, Erlotinib and their combination [9]: responded better to compound 12 than a combination of erlotinib and SAHA

Compound: COc1cc2ncnc(N[C@H](C)c3ccc(Cl)cc3)c2cc1OCCCCCCC(=O)NO [Compound 82, (R)-7-(4-(1-(4-chlorophenyl)ethylamino)-7-methoxyquinazolin-6-yloxy)-N-hydroxyheptanamide]
IC50 [1]: 100 to 1000 nM

Compound: COc1ccc([C@@H](C)Nc2ncnc3cc(OC)c(OCCCCCCC(=O)NO)cc23)cc1 [Compound 83, (R)—N-hydroxy-7-(7-methoxy-4-(1-(4-methoxyphenyl)ethylamino)quinazolin-6-yloxy)-heptanamide]
IC50 [1]: > 10000 nM

Compound: COc1cc2ncnc(NCc3ccccc3)c2cc1OCCCCCCC(=O)NO [Compound 85, 7-(4-(Benzylamino)-7-methoxyquinazolin-6-yloxy)-N-hydroxyheptanamide]
IC50 [1]: < 100 nM | IC50 [3]: 1000 to 10000 nM

Compound: COc1cc2ncnc(NCc3ccc(F)c(Cl)c3)c2cc1OCCCCCCC(=O)NO [Compound 88, 7-(4-(3-chloro-4-fluorobenzylamino)-7-methoxyquinazolin-6-yloxy)-N-hydroxyheptanamide]
IC50 [1]: < 100 nM

Compound: COc1cc2ncnc(Nc3ccc(F)c(Cl)c3)c2cc1OCCOc1ccc(CC(=O)NO)cc1 [Compound 91]
IC50 [1]: < 100 nM

Compound: C#Cc1cccc(Nc2ncnc3cc(OCCOC)c(OCCOC)cc23)c1 [Erlotinib, reference compound]
effect on tumor growth / tumor size [5]: did not significantly affect tumor size

Compound: Sodium
Chemical stability in diluted solution [10]: >12 h | Dilution with D5W [10]: >10x | Solubility [10]: 7500 µg/mL | pH ([10]; salt in 30% CAPTISOL): 10-11 | IV Tissue [11]: High

The next lines start with the values.

IC50 [3]: > 10000 nM
Compound: COc1cc2ncnc(N[C@H](C)c3ccccc3)c2cc1OCCCCCCC(=O)NO [Compound 79, (R)—N-hydroxy-7-(7-methoxy-4-(1-phenylethylamino)quinazolin-6-yloxy)heptanamide]

IC50 [1]: 100 to 1000 nM
Compound: COc1cc2ncnc(NCCc3ccccc3)c2cc1OCCCCCCC(=O)NO [Compound 84]

IC50 [1]: 100 to 1000 nM
Compound: COc1cc2ncnc(NCc3ccc(F)c(F)c3)c2cc1OCCCCCCC(=O)NO [Compound 87, 7-(4-(3,4-difluorobenzylamino)-7-methoxyquinazolin-6-yloxy)-N-hydroxyheptanamide]

IC50 [1]: 100 to 1000 nM
Compound: COc1cc2ncnc(NCc3cccc(Br)c3)c2cc1OCCCCCCC(=O)NO [Compound 89, 7-(4-(3-bromobenzylamino)-7-methoxyquinazolin-6-yloxy)-N-hydroxyheptanamide]

IC50 [1]: < 100 nM
Compound: COc1cc2ncnc(Nc3ccc(F)c(Cl)c3)c2cc1NC(=O)Nc1ccc(C(=O)NO)cc1 [Compound 93]

IC50 [1]: < 100 nM
Compound: COc1cc2ncnc(Nc3ccc(F)c(Cl)c3)c2cc1OCCCCCCC(=O)N(C)O [Compound 94]

melting point: 195.8 to 197 °C
Compound: C#Cc1cccc(Nc2ncnc3cc(OC)c(OCCCCCCC(=O)NOC)cc23)c1 [Compound 95, 7-(4-(3-ethynylphenylamino)-7-methoxyquinazolin-6-yloxy)-N-methoxyheptanamide]

IC50 [2]: < 100 nM
Compound: COc1cc2ncnc(Nc3ccc(F)c(Cl)c3)c2cc1SCCCCC(=O)NO [Compound 151]

IC50 [2]: < 100 nM
Compound: COc1cc2ncnc(Nc3ccc(F)c(Cl)c3)c2cc1SCCCCCCC(=O)NO [Compound 155]

IV Tissue [11]: High
Compound: Tartaric Acid
